Here are results for 10 compounds from US5883107A, “Arginine mimic derivatives as enzyme inhibitors” (Corvas International, Inc., priority 1995, dated 1999).

Where two headings read alike, the source gives them in different places.

For one series, the target named is T1, trypsin (Bos taurus, UniProt P00760).
T1 construct: bovine pancreatic trypsin; purchased Worthington Biochemical Corp. TRL3; host or cells: bovine pancreas
T1 sequence (P00760 24-246): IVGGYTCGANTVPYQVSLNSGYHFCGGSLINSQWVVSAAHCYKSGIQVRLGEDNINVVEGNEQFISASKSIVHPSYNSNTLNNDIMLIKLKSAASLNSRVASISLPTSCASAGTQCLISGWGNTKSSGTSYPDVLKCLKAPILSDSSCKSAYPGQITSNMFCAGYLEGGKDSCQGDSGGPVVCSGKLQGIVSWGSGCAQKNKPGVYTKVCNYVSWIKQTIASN
Briefly: In vitro enzyme assay for specificity: trypsin. Type of series: biochemical, bovine. Particulars: 0.5 nM enzyme, 30 minute incubation, read-out: IC50 for inhibition of trypsin. The protocol:
Trypsin catalytic activity was determined using the chromogenic substrate, S-2222 (benzoyl-L-isoleucine-L-glutamic acid-[gamma-methyl ester]-L-arginine-p-nitroanilide), which was obtained from Kabi Diagnostica. […] Purified (3×-crystallized; TRL3) bovine pancreatic trypsin was obtained from Worthington Biochemical Corp. The enzyme was reconstituted in deionized water and diluted into HBSA prior to assay in which the final concentration was 0.5 nM.

Series [1] deals with thrombotic occlusion of the rat carotid artery. Briefly: Rat model of FeCl3-induced platelet-dependent arterial thrombosis. Particulars: iv, 1 h, read-out: ED50, dose that prevents complete thrombotic occlusion in 50% of animals tested. Type of series: in vivo.
The next series has as its target alpha-thrombin (Homo sapiens, UniProt P00734). The series can be described thus: In vitro enzyme assay for specificity: thrombin. Type of series: biochemical. Particulars: first of the two values in the cell (two isomeric pair), or the only value; 0.25 nM enzyme, 30 minute incubation; read-out: IC50 for inhibition of alpha-thrombin amidolytic activity.
The subject of series [2] is trypsin, plasmin and kallikrein. Particulars: literature; cited from earlier work.
The conditions of series [3]: literature; cited from earlier work.
For series [4] the following is noted: literature; cited from earlier work. The source holds these as a separate data set.
For the next series, the system named is thrombin. Conditions: cited from earlier work.
The test system of a further series is thrombosis. Particulars: literature; cited from earlier work.
Series [5] deals with atherosclerotic rabbit femoral artery. Conditions: following mechanical damage; literature; cited from earlier work.
Setting [6] is: first of the two values in the cell (two isomeric pair), or the only value.

Protocol for alpha-thrombin: The buffer used for all assays was HBSA (10 mM HEPES, pH 7.5, 150 mM sodium chloride, 0.1% bovine serum albumin). […] Following a 30 minute incubation at ambient temperature, 50 microliters of the substrate at the concentrations specified below, was added to the wells yielding a final total volume of 200 microliters.
Thrombin catalytic activity was determined using the chromogenic substrate Pefachrome t-PA (CH3 SO2 -D-hexahydrotyrosine-glycyl-L-arginine-p-nitroanilide, obtained from Pentapharm Ltd.).

`CCCC(CCC)C(=O)N[C@@H](CC(=O)OC)C(=O)N1CCC[C@H]1C(=O)N[C@@H](C=O)CC1CCCN(C(=N)N)C1` (single isomer, unassigned) [Isomer 11B(D)]: the IC50 – broadly, the point on the concentration scale where inhibition reaches its midpoint – on trypsin (setting [6]) is 2590 nM.
On to `CCCC(CCC)C(=O)N[C@@H](CC(=O)OC)C(=O)N1CCC[C@H]1C(=O)N[C@H](C=O)CC1CCCN(C(=N)N)C1` (single isomer, unassigned) [Isomer 11B, alpha-N-(propylpentanoyl)-aspartyl(beta-methyl ester)-prolyl-3-[3-piperidyl-(N-guanidino)]-L-alaninal], for which the concentration for half-maximal inhibition (IC50) on trypsin (setting [6]) came out at 67 nM; at trypsin (second of the two values in the cell (two isomeric pair)), 113 nM. Besides, in [1], the ED50 (usually the midpoint of the dose-response relation) came to 5 mg/kg.
`CCCC(CCC)C(=O)N[C@@H](Cc1nnn[nH]1)C(=O)N1CCC[C@H]1C(=O)N[C@H](C=O)CC1CCCN(C(=N)N)C1` (single isomer, unassigned) [Isomer 19B]: the results for the IC50 on alpha-thrombin and at trypsin (setting [6]) were 3.11 nM and 150 nM, respectively.
As for `N=C(N)c1ccc(CC(=O)C(=O)O)cc1` [APPA, 4-amidinophenylpyruvic acid], the “selectivity (in words)” value in series [2] is “non-selective, inhibiting trypsin, plasmin and kallikrein”. Moreover, in series [3], the “toxicity (in words)” value was “low toxicity”. In addition, the “pharmacokinetics (in words)” value in series [4] is on record as “favourable pharmacokinetics”.
For the compound `CC(=O)N[C@H](Cc1ccccc1)C(=O)N1CCC[C@H]1C(=O)N[C@@H](CCCNC(=N)N)B(O)O` [Ac-(D-Phe)-Pro-boroArg, acetyl-D-phenylalanyl-prolyl-boroarginine], the “inhibition of thrombin (in words)” value in the series on thrombin (literature) is given as “inhibit thrombin by directly binding to the active site”.
`CC1CNc2c(cccc2S(=O)(=O)N[C@@H](CCCNC(=N)N)C(=O)N2CC[C@@H](C)C[C@@H]2C(=O)O)C1` (stereo partly drawn) [Argatroban, 2R,4R-4-methyl-1-[N-2-(3-methyl-1,2,3,4-tetrahydro-8-quinolinesulfonyl)-L-argininal]-2-piperdinecarboxylic acid]: the “inhibition of thrombin (in words)” value in the series on thrombin was “bind directly to the active site of thrombin”. Moreover, the “antithrombotic effect (in words)” value in the series on thrombosis is on record as “potent antithrombotic agent in several experimental models of acute arterial thrombosis”.
Take `N=C(N)NCCC[C@@H](C=O)NC(=O)[C@@H]1CCCN1C(=O)[C@H](N)Cc1ccccc1` [D-Phe-Pro-Arg-a1, D-phenylalanyl-prolyl-argininal]: in the series with thrombin, the “inhibition of thrombin (in words)” value was “inhibit thrombin by directly binding to the active site”.
With `CS(=O)(=O)O.CS(=O)(=O)O.N=C(N)Nc1ccc(C(=O)Oc2ccc3cc(C(=N)N)ccc3c2)cc1` [FUT 175, 6-amidino-2-naphthyl-4-guanidinobenzoate dimethanesulfonate], in series [2], the “selectivity (in words)” value is “non-selective”.
As to `N=C(N)NCCC[C@H](NC(=O)[C@@H]1CCCN1C(=O)[C@H](N)Cc1ccccc1)C(=O)CCl` [P-PACK, D-phenylalanyl-prolyl-arginine-chloromethyl ketone], the “inhibition of thrombin (in words)” value in the series with thrombin was “inhibit thrombin by directly binding to the active site”.
On to Hirudin, for which, in the series with thrombin (literature), the “inhibition of thrombin (in words)” value is “one of the most potent inhibitors of thrombin known”. Also, the “antithrombotic effect (in words)” value with thrombosis is recorded as “potent antithrombotic agent in vivo”. Further, in series [5], the “smooth muscle proliferation and restenosis (in words)” value was “effectively inhibit smooth muscle proliferation and the associated restenosis”.
